Measured values: ChEMBL document CHEMBL1134604, “2-Alkynyl-8-aryl-9-methyladenines as novel adenosine receptor antagonists: their synthesis and structure-activity relationships toward hepatic glucose production induced via agonism of the A(2B) receptor” (J Med Chem, 2001)

Key:
Adenosine receptor A2b [1] = molecular target: T1, Adenosine receptor A2b (Rattus norvegicus, UniProt P29276); test: Inhibitory activity on N-ethylcarboxamidoadenosine (NECA)-induced glucose production in primary cultured rat hepatocytes; assay type: functional, cell-based, Hepatocyte
T1 sequence (P29276 whole entry): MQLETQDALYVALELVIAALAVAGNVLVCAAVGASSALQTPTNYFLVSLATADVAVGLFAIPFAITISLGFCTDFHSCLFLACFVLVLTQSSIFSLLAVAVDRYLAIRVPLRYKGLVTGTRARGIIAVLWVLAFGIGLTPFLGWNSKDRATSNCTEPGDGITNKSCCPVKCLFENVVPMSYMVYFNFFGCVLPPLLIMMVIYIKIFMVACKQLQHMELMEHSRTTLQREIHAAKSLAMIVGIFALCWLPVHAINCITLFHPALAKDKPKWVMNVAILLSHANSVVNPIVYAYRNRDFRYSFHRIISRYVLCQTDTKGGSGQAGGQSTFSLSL

Adenosine receptor A3 [2] = molecular target: T2, Adenosine receptor A3 (Homo sapiens, UniProt P0DMS8); test: Inhibitory activity against cyclic AMP production in human adenosine A3 receptor assay
T2 sequence (P0DMS8 whole entry): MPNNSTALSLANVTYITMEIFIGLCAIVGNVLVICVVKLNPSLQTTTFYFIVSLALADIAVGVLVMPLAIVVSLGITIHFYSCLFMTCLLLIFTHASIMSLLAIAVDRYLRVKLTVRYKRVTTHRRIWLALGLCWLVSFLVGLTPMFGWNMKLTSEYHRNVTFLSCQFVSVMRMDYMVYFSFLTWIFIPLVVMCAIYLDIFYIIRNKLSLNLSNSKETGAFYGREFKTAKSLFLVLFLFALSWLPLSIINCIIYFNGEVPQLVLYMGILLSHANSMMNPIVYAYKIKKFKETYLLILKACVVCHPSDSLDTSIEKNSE

Adenosine receptor A2b [3] = molecular target: T3, Adenosine receptor A2b (Homo sapiens, UniProt P29275); test: Inhibitory activity on NECA-induced cyclic-AMP accumulation in CHO-K1 cells expressing human Adenosine A2B receptor; assay type: functional, cell-based
T3 sequence (P29275 whole entry): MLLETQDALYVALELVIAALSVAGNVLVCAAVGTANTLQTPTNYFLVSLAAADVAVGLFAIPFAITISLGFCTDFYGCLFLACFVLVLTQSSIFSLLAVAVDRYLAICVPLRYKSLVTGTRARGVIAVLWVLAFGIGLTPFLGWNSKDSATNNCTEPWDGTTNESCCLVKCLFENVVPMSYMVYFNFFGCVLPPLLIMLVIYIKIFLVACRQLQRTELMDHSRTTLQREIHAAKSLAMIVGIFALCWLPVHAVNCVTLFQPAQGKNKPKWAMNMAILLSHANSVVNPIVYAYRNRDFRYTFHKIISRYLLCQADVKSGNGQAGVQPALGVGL

Adenosine receptor A2b [4] = molecular target: T3, Adenosine receptor A2b; test: Inhibitory activity against cyclic AMP production in human Adenosine A2B receptor assay
[5] = molecular target: Adenosine receptor A2a (Rattus norvegicus) (UniProt P30543); test: Inhibitory activity against cyclic AMP production in rat Adenosine A2A receptor assay
Adenosine receptor A2a [6] = molecular target: T4, Adenosine receptor A2a (Homo sapiens, UniProt P29274); test: Binding Affinity towards Adenosine A2A receptor expressed in HEK293 cells versus [3H]CGS-21680; assay type: cell-based
Adenosine receptor A1 [7] = molecular target: T5, Adenosine receptor A1 (Homo sapiens, UniProt P30542); test: Binding Affinity towards Adenosine A1 receptor expressed in CHO-K1 cells versus [3H]CCPA; assay type: cell-based
T5 sequence (P30542 whole entry): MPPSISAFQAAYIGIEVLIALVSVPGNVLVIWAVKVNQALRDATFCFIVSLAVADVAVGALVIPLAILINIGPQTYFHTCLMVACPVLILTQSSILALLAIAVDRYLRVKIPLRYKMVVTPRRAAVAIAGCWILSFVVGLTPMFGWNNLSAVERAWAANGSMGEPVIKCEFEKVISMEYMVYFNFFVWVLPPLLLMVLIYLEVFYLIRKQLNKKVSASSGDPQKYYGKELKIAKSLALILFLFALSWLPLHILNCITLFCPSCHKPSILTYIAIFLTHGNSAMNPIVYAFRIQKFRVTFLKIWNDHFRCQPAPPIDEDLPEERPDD

Adenosine receptor A3 [8] = molecular target: T2, Adenosine receptor A3; test: Binding affinity towards adenosine A3 receptor expressed in HEK293 cells versus [125I]AB-MECA; assay type: cell-based
Adenosine receptor A1 [9] = molecular target: T6, Adenosine receptor A1 (Rattus norvegicus, UniProt P25099); test: Inhibitory activity against cyclic AMP production in rat Adenosine A1 receptor assay
T6 sequence (P25099 whole entry): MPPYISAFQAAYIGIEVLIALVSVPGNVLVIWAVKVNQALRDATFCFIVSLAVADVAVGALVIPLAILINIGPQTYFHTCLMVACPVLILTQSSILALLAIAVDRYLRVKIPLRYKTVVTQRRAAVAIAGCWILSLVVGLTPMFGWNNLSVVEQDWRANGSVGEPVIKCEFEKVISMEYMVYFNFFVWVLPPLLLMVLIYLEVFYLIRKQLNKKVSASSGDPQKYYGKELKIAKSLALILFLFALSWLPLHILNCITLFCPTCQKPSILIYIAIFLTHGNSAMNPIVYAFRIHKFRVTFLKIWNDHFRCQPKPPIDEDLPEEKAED

Adenosine receptor A2a [10] = molecular target: T4, Adenosine receptor A2a; test: Binding Affinity for adenosine A2A receptor expressed in HEK293 cells compared to [3H]CGS-21680; assay type: cell-based

T4 sequence (P29274 whole entry): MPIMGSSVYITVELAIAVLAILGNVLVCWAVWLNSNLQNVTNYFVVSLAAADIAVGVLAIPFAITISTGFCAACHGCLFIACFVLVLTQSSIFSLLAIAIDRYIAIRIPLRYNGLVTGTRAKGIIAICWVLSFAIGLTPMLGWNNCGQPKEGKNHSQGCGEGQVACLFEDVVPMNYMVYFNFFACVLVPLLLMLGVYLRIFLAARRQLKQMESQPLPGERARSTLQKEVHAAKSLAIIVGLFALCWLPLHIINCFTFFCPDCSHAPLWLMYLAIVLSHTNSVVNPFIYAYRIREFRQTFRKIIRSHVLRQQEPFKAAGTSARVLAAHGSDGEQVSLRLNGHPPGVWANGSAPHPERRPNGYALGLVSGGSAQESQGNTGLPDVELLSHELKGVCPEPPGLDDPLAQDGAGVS
Adenosine receptor A2a (Rattus norvegicus), sequence (P30543 whole entry, looked up): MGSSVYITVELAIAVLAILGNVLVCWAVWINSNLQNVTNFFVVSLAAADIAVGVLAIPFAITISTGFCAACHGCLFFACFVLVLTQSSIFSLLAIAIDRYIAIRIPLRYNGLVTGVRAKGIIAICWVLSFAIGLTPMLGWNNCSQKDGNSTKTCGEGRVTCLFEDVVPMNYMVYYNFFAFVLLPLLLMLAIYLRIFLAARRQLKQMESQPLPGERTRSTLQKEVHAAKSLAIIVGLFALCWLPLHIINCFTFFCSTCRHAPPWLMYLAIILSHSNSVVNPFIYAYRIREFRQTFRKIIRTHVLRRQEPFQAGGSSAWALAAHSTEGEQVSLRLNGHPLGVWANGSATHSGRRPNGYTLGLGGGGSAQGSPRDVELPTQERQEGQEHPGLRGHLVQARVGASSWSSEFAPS

Compound | IC50 (Adenosine receptor A2b [1]) [nM] | IC50 (Adenosine receptor A2b [3]) [nM] | Ki (Adenosine receptor A1 [7]) [nM] | further results
Cn1c(-c2ccccn2)nc2c(N)nc(C#CC3(O)CCCCC3)nc21 | 1300 |  |  | 
Cn1c(-c2ccc(Cl)cc2)nc2c(N)nc(C#CC3(O)CCCCC3)nc21 | 6300 | 500 |  | 
Cn1c(-c2cccc(C(F)(F)F)c2)nc2c(N)nc(C#CC3(O)CCCCC3)nc21 | > 10000 | 5600 |  | 
Cn1c(-c2ccco2)nc2c(N)nc(C#CC3(O)CCCCC3)nc21 | 220 | 14 | 25 | Ki (Adenosine receptor A2a [6]): 11 nM
COc1ccc(-c2nc3c(N)nc(C#CC4(O)CCCCC4)nc3n2C)cc1F | > 10000 |  |  | 
Cn1c(-c2cccc(F)c2)nc2c(N)nc(C#CC3(O)CCCC3)nc21 | 420 | 63 | 20 | Ki (Adenosine receptor A3 [8]): 1100 nM
CCCn1c(=O)c2c(nc(/C=C/c3ccc(OC)c(OC)c3)n2C)n(CCC)c1=O |  | 1500 | > 10000 | IC50 (Adenosine receptor A1 [9]): 62 nM; Ki (Adenosine receptor A3 [8]): 2500 nM
Cn1c(-c2cccc(F)c2)nc2c(N)nc(C#CC(C)(C)O)nc21 | 510 | 150 | 30 | Ki (Adenosine receptor A2a [6]): 9.1 nM; Ki (Adenosine receptor A3 [8]): 2100 nM
Cn1c(-c2cccc(F)c2)nc2c(N)nc(C#CC3CCCC3)nc21 | 720 |  |  | 
Cn1c(-c2cccs2)nc2c(N)nc(C#CC3(O)CCCCC3)nc21 | 750 |  |  | 
Cn1c(-c2ccc(F)cc2)nc2c(N)nc(C#CC3(O)CCCCC3)nc21 | 1200 | 160 |  | 
Cn1c(-c2cccc(C#N)c2)nc2c(N)nc(C#CC3(O)CCCCC3)nc21 | 410 | 72 | 130 | Ki (Adenosine receptor A2a [6]): 13 nM
Cn1c(-c2cccc(Cl)c2)nc2c(N)nc(C#CC3(O)CCCCC3)nc21 | 490 |  |  | 
Cn1c(-c2cccc(F)c2)nc2c(N)nc(C#CC3(O)CCCCCC3)nc21 | 440 | 49 | 27 | Ki (Adenosine receptor A2a [6]): 19 nM
Cn1cnc2c(N)nc(C#CC3(O)CCCCC3)nc21 | 4400 |  |  | 
Cc1cccc(-c2nc3c(N)nc(C#CC4(O)CCCCC4)nc3n2C)c1 | 970 |  |  | 
Cn1c(-c2cccc(F)c2)nc2c(N)nc(C#CC3(O)CCCCC3)nc21 | 250 | 23 | 14 | Ki (Adenosine receptor A2a [6]): 16 nM; Ki (Adenosine receptor A3 [8]): 540 nM

Continued, in another order:

IC50 (Adenosine receptor A2b [1]) [nM] | IC50 (Adenosine receptor A2b [3]) [nM] | Ki (Adenosine receptor A1 [7]) [nM] | Compound | further results
1100 | 210 |  | Cn1c(=O)c2[nH]c(-c3ccccc3)nc2n(C)c1=O [8-PHENYL THEOPHYLLINE] | IC50 (Adenosine receptor A3 [2]): 1250 nM; IC50 (Adenosine receptor A2b [4]): 210 nM; IC50 [5]: 454 nM
> 10000 | 3000 | > 10000 | COC(=O)C1=C2C=CN(C)C=C2c2nc(-c3ccccc3)nn2C1 | Ki (Adenosine receptor A2a [10]): > 10000 nM; IC50 (Adenosine receptor A2b [4]): 3000 nM
1600 |  |  | COc1cccc(-c2nc3c(N)nc(C#CC4(O)CCCCC4)nc3n2C)c1 | 
8100 |  | 18 | O=C(/C=C/c1c(-c2ccccc2)nn2ccccc12)N1CCCC[C@@H]1CCO [FK453] | IC50 (Adenosine receptor A1 [9]): 17.2 nM; Ki (Adenosine receptor A3 [8]): 2800 nM
440 | 77 | 19 | Cn1c(-c2ccccc2F)nc2c(N)nc(C#CC3(O)CCCCC3)nc21 | Ki (Adenosine receptor A2a [6]): 15 nM
540 | 140 | 29 | CCC(O)(C#Cc1nc(N)c2nc(-c3cccc(F)c3)n(C)c2n1)CC | Ki (Adenosine receptor A2a [6]): 13 nM; Ki (Adenosine receptor A3 [8]): 330 nM
760 |  |  | Cn1c(-c2ccccc2)nc2c(N)nc(C#CC3(O)CCCCC3)nc21 | 
5300 |  |  | Cn1c(-c2cccc(F)c2)nc2c(N)ncnc21 | 
